The source of these data is US11591336B2 (Relay Therapeutics, Inc., priority 2017, dated 2023).

Where a name gives a salt, the structure may show the parent alone.

Chain of SHP2 (Q06124 whole entry): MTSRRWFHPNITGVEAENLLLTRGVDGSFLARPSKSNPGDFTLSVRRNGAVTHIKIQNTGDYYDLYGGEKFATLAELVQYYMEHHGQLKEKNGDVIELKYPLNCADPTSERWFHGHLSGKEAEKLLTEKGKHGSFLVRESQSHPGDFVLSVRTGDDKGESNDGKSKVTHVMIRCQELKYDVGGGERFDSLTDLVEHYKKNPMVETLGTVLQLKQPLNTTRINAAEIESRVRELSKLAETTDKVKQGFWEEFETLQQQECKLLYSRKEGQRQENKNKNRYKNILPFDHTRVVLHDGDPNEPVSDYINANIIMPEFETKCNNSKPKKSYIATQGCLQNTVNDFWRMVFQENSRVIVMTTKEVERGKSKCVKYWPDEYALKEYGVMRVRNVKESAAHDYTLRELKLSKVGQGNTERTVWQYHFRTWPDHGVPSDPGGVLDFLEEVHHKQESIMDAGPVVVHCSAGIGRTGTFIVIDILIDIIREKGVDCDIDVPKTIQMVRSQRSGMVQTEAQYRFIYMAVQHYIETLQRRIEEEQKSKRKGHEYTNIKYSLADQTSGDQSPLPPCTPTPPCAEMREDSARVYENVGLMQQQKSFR

The assay addresses SHP2 (Homo sapiens (Human), UniProt Q06124). Put plainly: SHP2 Allosteric Inhibition Assay (DiFMUP prompt fluorescence). The class given is biochemical. To be noted: 0.25 nM SHP2 activated with 0.5 μM peptide IRS1_pY1172(dPEG8)pY1222; substrate DiFMUP 100 μM; 25° C.
On to `C[C@@H]1OCC2(CCN(c3cnc4c(N5CCCc6nc(C7=CCNCC7)ccc65)n[nH]c4n3)CC2)[C@@H]1N` [Compound 427, (3S,4S)-3-methyl-8-{3-[6-(1,2,3,6-tetrahydropyridin-4-yl)-1,2,3,4-tetrahydro-1,5-naphthyridin-1-yl]-1H-pyrazolo[3,4-b]pyrazin-6-yl}-2-oxa-8-azaspiro[4.5]decan-4-amine hydrochloride], for which the IC50 was < 1000 nM. As for `N[C@@H]1CCC12CCN(c1cnc3c(N4CCCc5ncccc54)n[nH]c3n1)CC2` [Compound 339, (1R)-7-[3-(1,2,3,4-tetrahydro-1,5-naphthyridin-1-yl)-1H-pyrazolo[3,4-b]pyrazin-6-yl]-7-azaspiro[3.5]nonan-1-amine], the figure is < 1000 nM. As for `C[C@@H]1OCC2(CCN(c3cnc4c(N5CC[C@H](C)c6nc(C(=O)N(C)C)ccc65)n[nH]c4n3)CC2)[C@@H]1N` [Compound 364, (8S)-5-{6-[(3S,4S)-4-amino-3-methyl-2-oxa-8-azaspiro[4.5]decan-8-yl]-1H-pyrazolo[3,4-b]pyrazin-3-yl}-N,N,8-trimethyl-5,6,7,8-tetrahydro-1,5-naphthyridine-2-carboxamide], the figure is < 1000 nM; as for `C[C@@H]1OCC2(CCN(c3cnc4c(N5CCCc6nc(-c7cnn(C8COC8)c7)ccc65)n[nH]c4n3)CC2)[C@@H]1N` [Compound 372, (3S,4S)-3-methyl-8-(3-{6-[1-(oxetan-3-yl)-1H-pyrazol-4-yl]-1,2,3,4-tetrahydro-1,5-naphthyridin-1-yl}-1H-pyrazolo[3,4-b]pyrazin-6-yl)-2-oxa-8-azaspiro[4.5]decan-4-amine], < 1000 nM. `CC1(CN)CCN(c2cnc3c(C(C)(O)c4ccccc4)n[nH]c3n2)CC1` (stereo not drawn) [Compound 19, 1-(6-(4-(aminomethyl)-4-methylpiperidin-1-yl)-1H-pyrazolo[3,4-b]pyrazin-3-yl)-1-phenylethanol] returned an IC50 of 1000 to 10000 nM. For `CN1CCN(c2n[nH]c3nc(N4CCC(C)(CN)CC4)cnc23)c2ccc(Cl)nc21` [Compound 195], the IC50 was < 1000 nM. Consider `Cc1c(C#N)ccc2c1CCCN2c1n[nH]c2nc(N3CCC4(CC3)CO[C@@H](C)[C@H]4N)cnc12` [Compound 208], for which the IC50 was < 1000 nM. As for `Cn1nc(Sc2ccncc2)c2ncc(N3CCC(C)(N)CC3)nc21` [Cmpd 487], the figure is ≥ 10000 nM.

Regarding `CSc1cccc2c1CCCN2c1n[nH]c2nc(N3CCC(C)(CN)CC3)cnc12` [Compound 191], the IC50 was < 1000 nM. Regarding `CC1(N)CCN(c2cnc3c(Oc4cnccc4Cl)n[nH]c3n2)CC1` [Compound 509, 1-(3-((4-Chloropyridin-3-yl)oxy)-1H-pyrazolo[3,4-b]pyrazin-6-yl)-4-methylpiperidin-4-amine hydrochloride], the IC50 is 1000 to 10000 nM.

For `C[C@H]1CCN(c2n[nH]c3nc(N4CCC(C)(CN)CC4)cnc23)c2ccc(C#N)cc21` (single isomer, unassigned) [Compound 116], the IC50 was < 1000 nM. For the molecule `C[C@@H]1OCC2(CCN(c3cnc4c(N5CCCc6c([C@H]7CCOC7)cccc65)n[nH]c4n3)CC2)[C@@H]1N` [Compound 400], the IC50 is < 1000 nM.

With `Cc1cccc2c1N(C)CCN2c1n[nH]c2nc(N3CCC4(CC3)CO[C@@H](C)[C@H]4N)cnc12` [Compound 384], the IC50 is < 1000 nM.

With `COc1cccc2c1CCCN2c1n[nH]c2nc(N3CCC(C)(CN)CC3)cnc12` [Compound 57], the IC50 was < 1000 nM. Then `C[C@@H]1OCC2(CCN(c3cnc4c(N5CCS(=O)(=O)c6ccccc65)n[nH]c4n3)CC2)[C@@H]1N` [Compound 341], with < 1000 nM; and `CC1(CN)CCN(c2cnc3c(Nc4ccccc4Cl)n[nH]c3n2)CC1` [Compound 11, 6-(4-(aminomethyl)-4-methylpiperidin-1-yl)-N-(2-chlorophenyl)-1H-pyrazolo[3,4-b]pyrazin-3-amine], with < 1000 nM; and `CC(=O)N1CCN(c2n[nH]c3nc(N4CCC5(CC4)CO[C@@H](C)[C@H]5N)cnc23)c2ccc(-c3cnn(C)c3)cc21` [Compound 323], with < 1000 nM.

Consider `C[C@H]1CCN(c2n[nH]c3nc(N4CCC5(CC4)COC[C@H]5N)cnc23)c2ccc(-c3ncon3)cc21` [Compound 299, (4S)-8-{3-[(4S)-4-methyl-6-(1,2,4-oxadiazol-3-yl)-1,2,3,4-tetrahydroquinolin-1-yl]-1H-pyrazolo[3,4-b]pyrazin-6-yl}-2-oxa-8-azaspiro[4.5]decan-4-amine], for which the IC50 is < 1000 nM. `CC1(N)CCN(c2cnc3c(N4CCCc5c4ccnc5N)n[nH]c3n2)CC1` [Compound 42, 1-(6-(4-amino-4-methylpiperidin-1-yl)-1H-pyrazolo[3,4-b]pyrazin-3-yl)-1,2,3,4-tetrahydro-1,6-naphthyridin-5-amine] had an IC50 of 1000 to 10000 nM. On to `C[C@@H]1OCC2(CCN(c3cnc4c(N5CCCc6c5ccc(C#N)c6[C@H]5CCCO5)n[nH]c4n3)CC2)[C@@H]1N` [Compound 524], for which the IC50 was < 1000 nM.

As to `CC(=O)N1CCN(c2n[nH]c3nc(N4CCC5(CC4)CO[C@@H](C)[C@H]5N)cnc23)c2ccc(C#N)cc21` [Compound 302], the IC50 was < 1000 nM. `C[C@@H]1OCC2(CCN(c3cnc4c(N5CCCc6nc(C7=CCOCC7)ccc65)n[nH]c4n3)CC2)[C@@H]1N` [Compound 237]: the IC50 was < 1000 nM.

Take `c1cncc(COC2CCN(c3cnc4c(N5CCCc6ncccc65)n[nH]c4n3)CC2)c1` [Compound 140]: the IC50 is ≥ 10000 nM. `CNC(=O)c1ccc2c(n1)CCCN2c1n[nH]c2nc(N3CCC4(CC3)CO[C@@H](C)[C@H]4N)cnc12` [Compound 282, 5-(6-((3S,4S)-4-amino-3-methyl-2-oxa-8-azaspiro[4.5]decan-8-yl)-1H-pyrazolo[3,4-b]pyrazin-3-yl)-N-methyl-5,6,7,8-tetrahydro-1,5-naphthyridine-2-carboxamide]: the IC50 was < 1000 nM. For `CC1CCN(c2n[nH]c3nc(N4CCC(C)(CN)CC4)cnc23)c2ccc(C#N)cc21` (stereo not drawn) [Compound 93], the IC50 is < 1000 nM. `NC[C@H]1CCN(c2cnc3c(N4CCCc5ncccc54)n[nH]c3n2)[C@H](c2ccccc2)C1` [Compound 167]: the IC50 lay within 1000 to 10000 nM.

For the molecule `C[C@@H]1OCC2(CCN(c3cnc4c(N5CCCc6c5ccnc6-c5cnn(C)c5)n[nH]c4n3)CC2)[C@@H]1N` [Compound 226], the IC50 is < 1000 nM. `C[C@@H]1OCC2(CCN(c3cnc4c(N5CCN(C)c6cnncc65)n[nH]c4n3)CC2)[C@@H]1N` [Compound 414] showed an IC50 of 1000 to 10000 nM. As for `CC1(CN)CCN(c2cnc3c(N4CCC(C(F)(F)F)c5ccccc54)n[nH]c3n2)CC1` (stereo not drawn) [Compound 106], the IC50 was < 1000 nM. Turning to `C[C@@H]1OCC2(CCN(c3cnc4c(Oc5ccnc(Cl)c5Cl)n[nH]c4n3)CC2)[C@@H]1N` [Compound 512, (3S,4S)-8-(3-((2,3-dichloropyridin-4-yl)oxy)-1H-pyrazolo[3,4-b]pyrazin-6-yl)-3-methyl-2-oxa-8-azaspiro[4.5]decan-4-amine], the IC50 was < 1000 nM. `C[C@@H]1OCC2(CCN(c3cnc4c(N5CCNc6ccccc65)n[nH]c4n3)CC2)[C@@H]1N` [Compound 234]: the IC50 is < 1000 nM. For the molecule `CCCC1CCN(c2n[nH]c3nc(N4CCC(C)(CN)CC4)cnc23)c2ccccc21` (stereo not drawn) [Compound 83], the IC50 was < 1000 nM. As for `C[C@@H]1CCN(c2n[nH]c3nc(N4CCC5(CC4)CO[C@@H](C)[C@H]5N)cnc23)c2cccc(-c3cnn(C)c3)c21` [Compound 277], the IC50 is < 1000 nM.
